Results from patent US20190365730A1, “ANAESTHETIC COMPOSITION COMPRISING ROPIVACAINE, PRILOCAINE AND LIDOCAINE” (priority 2017, published 2019).

Experiments:
[1] = test system: intact skin of the lower arm; test: Pinprick test of anesthesis after topical application to intact skin of the lower arm; type: in vivo
Description: The pharmaceutical compositions were topically administered to intact skin of the arm and tested for anesthesis by pinpricks to a treated area of the skin. The sensation of pain was recorded for every puncture of the skin by the pin. […] The compositions were applied to intact skin of the lower arm in a circle area of a diameter of 1-2 cm. The amount of the composition applied to the skin was kept constant and left on the skin during the study. The treated area of intact skin was subjected to repeated pinpricks and the sensation of pain was recorded.

[2] = animal models, compared with bupivacaine; cited from earlier work
[3] = relative to lidocaine; cited from earlier work
[4] = compared with prilocaine, lidocaine or ropivacaine; cited from earlier work

## CCCN1CCCC[C@H]1C(=O)Nc1c(C)cccc1C.Cl.O [Ropivacaine, (S)-N-(2,6-dimethylphenyl)-1-propylpiperidine-2-carboxamide hydrochloride monohydrate]
[1]
  duration of effect (effect lasted): 3 h
  onset of anesthesis: approximately 1 hour
[2]
  cardiotoxicity: less cardiotoxicity than bupivacaine
[3]
  duration time of anesthesis compared to lidocaine: about two

## CCCCN1CCCCC1C(=O)Nc1c(C)cccc1C (centres unmarked) [bupivacaine, 1-Butyl-N-(2,6-dimethylphenyl)-2-piperidinecarboxamide]
[4]
  toxicity: more toxic than prilocaine, lidocaine or ropivacaine
